Four molecules from patent US10316371B2, “Screening methods for identifying specific Staphylococcus aureus inhibitors” (TRANA DISCOVERY, INC., priority 2011, dated 2019) can be followed below.

The test system of one test is S. aureus ATCC 29213. The test can be described thus: Resistance passaging experiment. In kind it is cell-based. The note with it: for MIC: Staphylococcus aureus. As for the experimental part:
(§1) Two compounds (#880 and #169) were tested in time-kill assays against S. aureus strain 29213. These compounds were then used to attempt to select for resistant variants by passaging at sub-MIC concentrations for 20 passages.
The selected strain for this experiment was S. aureus ATCC 29213. A frozen glycerol stock was streaked onto MH-II agar and grown overnight at 37° C. The next day, 3-5 colonies were picked and grown in 3 mL of MH-II broth at 37° C. with 200 rpm shaking for approximately 4 hours. A 2-fold microdilution (in round-bottom, 96-well plates) was made for each compound being tested. CLSI guidelines for broth microdilution were followed. Using the bacteria grown from the overnight colonies, each microdilution was inoculated at a final concentration of 5×10^5 colony forming units (CFU)/mL. The microdilutions were incubated at 37° C. for 16 to 20 hours, after which the minimal inhibitory concentration (MIC) of each was read visually. The MIC is defined as the lowest concentration of compound resulting in no visible bacterial growth. This activity is recorded as the MIC at Passage 0. The contents of the well in the next dilution lower in concentration than the MIC (i.e., ½ the MIC) was mixed with a micropipette and 50 μL was transferred to 3 mL of fresh MH-II broth. This was grown at 37° C. with 200 rpm shaking for approximately 4 hours, at which time the sample was turbid. A 1 mL aliquot of this sample was added to a cryovial containing 300 μL of glycerol. This was marked as passage 1, vortexed, than placed in a −80° C. freezer for storage. The rest of the culture was adjusted to a bacterial concentration of 1×10^6cfu/mL (OD600 of 0.004), which was then used to inoculate a microdilution of the same compound (final bacterial concentration of 5×10^5 cfu/mL). This was incubated at 37° C. for 16 to 20 hours. After that time the MIC was once again read and recorded as the MIC at Passage 1. This process was repeated through 20 passages. Ciprofloxacin was included as a control and an untreated sample was also passaged 20 times as a negative control.

Test [1] has as its system S. aureus specific Arg ASL (anticodon stem loop) RNA oligomer interaction with programmed ribosomes. The test can be described thus: Fluorescence polarization assay of Arg ASL / programmed ribosome complex (HTS and dose response). In kind it is binding, S. aureus Arg ASL; E. coli 70S ribosomes. The note with it: control compounds. From the text:
The assay requires the following materials: • Ribosomes—isolated from E. coli or S. aureus • fMet tRNA (Sigma or Chemical Block, Moscow) • mRNA (including the S-D sequence, the “box” sequence, the codon for methionine, and the codon for arginine that is specific for S. aureus, AGA, optionally with additional base pairs to the left of the S-D sequence and/or to the right of the codon for arginine) • Fluorescently labeled Arg ASL oliogomer • Buffer—HAM20,β • 384 well high binding micro titer plates (Matrix Technologies #4319, sold by Fischer Scientific as cat #50823855), or other appropriate plates for use in high throughput screening • Filtration (Sartorius Stedium 100 Kdalton VC 1042) or centrifugation for complex purification • EDTA—negative control (binding antagonist) • Neomycin—A-site binding enhancer (binding agonist)
A ribosome complex was prepared using the above materials and then purified prior to use in the assay. The prepared complex can be stored in concentrated form at −80° C. The complexes were diluted in buffer and dispensed onto plates. […] Fluorescence polarization was measured at approximately 4 hours after dispensing onto the micro-titer plates.
ASL^Arg was first heated for 2 min at 90° C. in water, after addition of 1/10 V of 10× buffer incubation continued on ice for at least 10 min. Prior to complex formation 70S ribosomes and tRNA were reactivated in buffer for 5 min at 45° C. followed by 10 min at 37° C.; mRNA was heated in buffer at 37° C. for 5 min. • (1000 μl×(2 μM E. coli 70S ribosomes+10 μM mRNA-Arg+4 μM tRNA^fmet)/HAM20,β→30 min @ 37° C.,+1000 μl×(0.2 μM neomycin+[…]))→20 min @ 37° C., overnight on ice • Final complex: (2000 pm P+2000 pm ASL)/2 ml=1 μM P+1 μM ASL HAM20,β:
Preparation of Complexes: The purified complex was diluted in ice cold HAM20,β such that the total fluorescence was approximately 2,000,000 units per 5 μL.
20 μl of the diluted complex was added to all 384 well plates (except for blank wells, which received 20 μL of HAM20 only, without complex) using Multidrop dispenser after which the plates were incubated at 25° C. for 4 hours (target 4.5 hours for middle of batch). Plates were then analyzed for fluorescence polarization in Analyst HT fluorescence plate reader and the following instrument settings:
The parallel and perpendicular fluorescence values of experimental wells were automatically corrected for the corresponding values obtained from the blank wells. The fluorescence polarization was calculated as following: P=(I−Ip)/(I+Ip), wherein Ip—is perpendicular fluorescence and I—is parallel fluorescence.
The percent of effect of experimental compounds was calculated as following: %-Inh=(P0−Pc)/(P0−P100)*100, wherein P0—is average polarization in 0%—inhibition control wells, P100—is average polarization in 100%—inhibition control wells, and Pc—is polarization in compound well.
The 3 sigma HTS hits were cherry picked and retested in 6 pt dose response format, using 3× serial dilution and the top nominal concentration of 100 uM.
The compounds were serially diluted in 10% DMSO and plated into 384 well plates (in a volume of 5 μL) to achieve the nominal final concentration raging from 100 μM to 0.4 μM. The plates received 20 μl of the diluted complex following incubation at 25° C. for 4 hours. Plates were then analyzed for fluorescence polarization as described above (see HTS section).
In parallel, the compounds were tested for auto-fluorescence. To this end, the compounds were plated (using the same dilution protocol) into 384 well plates. The plates received 20 μL of the HAM20 assay buffer only (without complex). The plates were incubated for 4 hrs and then were analyzed for fluorescence polarization as described above.
A general note: In fluorescence polarisation assays a small probe gives low polarisation when free and higher when bound to something large.

In a further test the test system is S. aureus strain 29213. The test can be described thus: Time-kill experiments. In kind it is cell-based. To be noted: by 8 hours. As for the experimental part:
as §1
Twenty mL of MH-II media warmed to 37° C. was seeded with log-phase growth S. aureus strain 29213 at 1×10^6 cfu/mL in 50 mL erlenmeyer shake-flasks. Compound was added at 2× and 4× the MIC value. Negative controls (no drug) and positive drug controls (vancomycin at 2× and 4× the MIC) were included in the experiment. Flasks were shaken at 200 rpm and 37° C. Samples were taken at the times indicated (0, 2, 4, 6, 8 and 24 hrs post inoculation) and bacterial loads were quantified by limiting dilution assay.

In brackets after ≈: the same amount, converted by molar mass. Like-named read-outs stand apart in the source and are kept apart here.

Take `O=C(O)c1cn(C2CC2)c2cc(N3CCNCC3)c(F)cc2c1=O` [Ciprofloxacin]: the “MIC in S. aureus 29213” value is 0.5 µg/mL (≈ 1.51 µM) with S. aureus ATCC 29213 (Passage 0) and greater than 256 µg/mL against S. aureus ATCC 29213 (Passage 20, passaged at sub-MIC). The MIC was 0.5 µg/mL (≈ 1.51 µM) with S. aureus ATCC 29213 (ATCC29213, read-out: MIC in S. aureus 29213, Passage 0); 1 µg/mL (≈ 3.02 µM) with S. aureus ATCC 29213 (ATCC29213, read-out: MIC in S. aureus 29213, Passage 1, passaged at sub-MIC); 2 µg/mL (≈ 6.04 µM) in the test on S. aureus ATCC 29213 (ATCC29213, read-out: MIC in S. aureus 29213, Passage 2, passaged at sub-MIC); 2 µg/mL (≈ 6.04 µM) with S. aureus ATCC 29213 (ATCC29213, read-out: MIC in S. aureus 29213, Passage 3, passaged at sub-MIC); 2 µg/mL (≈ 6.04 µM) in the test with S. aureus ATCC 29213 (ATCC29213, read-out: MIC in S. aureus 29213, Passage 4, passaged at sub-MIC); 2 µg/mL (≈ 6.04 µM) in the test with S. aureus ATCC 29213 (ATCC29213, read-out: MIC in S. aureus 29213, Passage 5, passaged at sub-MIC). Moreover, the MIC in the test with S. aureus ATCC 29213 (ATCC29213, read-out: MIC in S. aureus 29213, Passage 6, passaged at sub-MIC) was determined as 2 µg/mL (≈ 6.04 µM); with S. aureus ATCC 29213 (ATCC29213, read-out: MIC in S. aureus 29213, Passage 7, passaged at sub-MIC), 2 µg/mL (≈ 6.04 µM); with S. aureus ATCC 29213 (ATCC29213, read-out: MIC in S. aureus 29213, Passage 8, passaged at sub-MIC) it was 4 µg/mL (≈ 12.1 µM); in the test with S. aureus ATCC 29213 (ATCC29213, read-out: MIC in S. aureus 29213, Passage 9, passaged at sub-MIC) it was 8 µg/mL (≈ 24.1 µM); in the test with S. aureus ATCC 29213 (ATCC29213, read-out: MIC in S. aureus 29213, Passage 10, passaged at sub-MIC) it was 8 µg/mL (≈ 24.1 µM); in the test on S. aureus ATCC 29213 (ATCC29213, read-out: MIC in S. aureus 29213, Passage 11, passaged at sub-MIC), 16 µg/mL (≈ 48.3 µM). The MIC in the test on S. aureus ATCC 29213 (ATCC29213, read-out: MIC in S. aureus 29213, Passage 12, passaged at sub-MIC) was determined as 16 µg/mL (≈ 48.3 µM); in the test with S. aureus ATCC 29213 (ATCC29213, read-out: MIC in S. aureus 29213, Passage 13, passaged at sub-MIC) it was 32 µg/mL (≈ 96.6 µM); in the test with S. aureus ATCC 29213 (ATCC29213, read-out: MIC in S. aureus 29213, Passage 14, passaged at sub-MIC) it was 32 µg/mL (≈ 96.6 µM); with S. aureus ATCC 29213 (ATCC29213, read-out: MIC in S. aureus 29213, Passage 15, passaged at sub-MIC), 32 µg/mL (≈ 96.6 µM); with S. aureus ATCC 29213 (ATCC29213, read-out: MIC in S. aureus 29213, Passage 16, passaged at sub-MIC) it was 64 µg/mL (≈ 193 µM); in the test on S. aureus ATCC 29213 (ATCC29213, read-out: MIC in S. aureus 29213, Passage 17, passaged at sub-MIC), 128 µg/mL (≈ 386 µM). Also, the MIC was 128 µg/mL (≈ 386 µM) in the test on S. aureus ATCC 29213 (ATCC29213, read-out: MIC in S. aureus 29213, Passage 18, passaged at sub-MIC); 256 µg/mL (≈ 773 µM) in the test on S. aureus ATCC 29213 (ATCC29213, read-out: MIC in S. aureus 29213, Passage 19, passaged at sub-MIC); greater than 256 µg/mL in the test with S. aureus ATCC 29213 (ATCC29213, read-out: MIC in S. aureus 29213, Passage 20, passaged at sub-MIC); 0.5 µg/mL (≈ 1.51 µM) in the test with S. aureus ATCC 29213 (ATCC29213, read-out: MIC in S. aureus 29213, second Passage 10 line of Table 4 (untreated culture passaged 10 times)); 0.5 µg/mL (≈ 1.51 µM) in the test with S. aureus ATCC 29213 (ATCC29213, read-out: MIC in S. aureus 29213, second Passage 20 line of Table 4 (untreated culture passaged 20 times)). Besides, in the test with S. aureus ATCC 29213 (passaging at sub-MIC concentration, 20 passages), the “increase of MIC over 20 passages” value is recorded as greater than 512 fold.

For `O=C(O)CN(CCN(CC(=O)O)CC(=O)O)CC(=O)O` [EDTA, reference compound], the “effect on complex formation (fluorescence polarization versus time, FIG. 11)” value in test [1] is “inhibitor of complex formation”.

Consider `CN[C@H](CC(C)C)C(=O)N[C@H]1C(=O)N[C@@H](CC(N)=O)C(=O)N[C@H]2C(=O)N[C@H]3C(=O)N[C@H](C(=O)N[C@H](C(=O)O)c4cc(O)cc(O)c4-c4cc3ccc4O)[C@H](O)c3ccc(c(Cl)c3)Oc3cc2cc(c3O[C@@H]2O[C@H](CO)[C@@H](O)[C@H](O)[C@H]2O[C@H]2C[C@](C)(N)[C@H](O)[C@H](C)O2)Oc2ccc(cc2Cl)[C@H]1O` [Vancomycin, reference compound], for which the “reduction of bacterial counts” value with S. aureus strain 29213 (2× the MIC) came out at 2.5 log10. Moreover, the “reduction of bacterial counts (killing)” value in the test with S. aureus strain 29213 (4× the MIC) is reported as 2.5 log10.

Regarding Neomycin [reference compound], the “effect on complex formation (fluorescence polarization versus time, FIG. 11)” value in test [1] was “stabilizer of complex formation”.

The MIC is the lowest concentration found to suppress growth.
